{
  "source": "paper PMC12567082",
  "about": "“Silver(I) Complexes Bearing S-Alkyl Thiosalicylic Acid Derivatives: DNA/BSA Binding and Antitumor Activity In Vitro and In Vivo” (Pharmaceutics, 2025)",
  "key": {"[1]": {"system": "CT-DNA", "experiment": "Viscosity measurements of DNA solution", "design": "species or system calf", "settings": "up to r = 1.0, 8 µM DNA", "experimental": "Viscosity measurements were performed to evaluate the interaction of C2 and C4 with DNA. The flow time was measured with a digital stopwatch. For each concentration, six replicate measurements were taken, and the average flow time was used for analysis. The data were presented as (η/η0)^1/3 against r, where η is the viscosity of DNA in the presence of complex, and η0 is the viscosity of DNA alone in the buffered solution. The viscosity value was calculated from the observed flow time of DNA-containing solution (t) corrected for the flow time of buffer alone (t0), η = (t − t0)/t0."}, "[2]": {"system": "CT-DNA", "experiment": "EB–CT-DNA fluorescence quenching", "type": "binding, calf", "settings": "EB–CT-DNA 8.52 × 10^−5 M, PBS pH 7.4", "experimental": "All samples were prepared in phosphate-buffered saline (PBS, pH 7.4). Stern–Volmer Equation (2) was used to interpret the fluorescence quenching data."}, "[3]": {"system": "human breast cancer (MDA-MB-468)", "experiment": "MTT assay MDA-MB-468", "type": "cell-based", "experimental": "(§1) Mouse breast cancer (4T1), human breast cancer (MDA-MB-468), mouse colon cancer (CT26), human colon cancer (HCT-116), mouse lung cancer (LLC1), human lung cancer (A549), mouse mesenchymal stem cells (mMSC), and human fibroblast cell lines (MRC-5) were used in this study and were consistently cultured in complete Dulbecco’s Modified Eagle Medium (DMEM) (Sigma-Aldrich, St. Louis, MO, USA) in incubator (5% CO2) under standard conditions. Complete DMEM was Dulbecco’s Modified Eagle Medium supplemented with 10% fetal bovine serum (FBS), 1 mmol/L penicillin–streptomycin, 1 mmol/L mixed nonessential amino acids, and 2 mmol/L L-glutamine (Sigma-Aldrich, St. Louis, MO, USA). All cancer cell lines and MRC-5 cell line were obtained from American Type Culture Collection (ATCC, Manassas, VA, USA), but mMSC was manufactured by Gibco (Middlesex County, MA, USA).\n(§2) In 96-well microplates, we seeded cancer and non-cancer cells, more exactly 5 × 10^3 cells per well in 100 μL of complete DMEM (Sigma-Aldrich, St. Louis, MO, USA). […] Tested concentration range for all metal-based substances was 3.9–500 μM. After incubation with MTT solution (5 mg/mL; pH 7.2) for 4 h, optical density was determined using Zenyth 3100 microplate multimode detector (Salzburg, Austria). All experiments were performed three times, each in triplicate, and the IC50 values as well as selectivity indexes (IC50 for mMSC or MRC-5/IC50 for mouse or human cancer cells) were calculated."}, "[4]": {"target": "T1, BSA (Bos taurus, UniProt P02769)", "T1 construct": "purchased Sigma-Aldrich", "T1 sequence (P02769 25-607)": "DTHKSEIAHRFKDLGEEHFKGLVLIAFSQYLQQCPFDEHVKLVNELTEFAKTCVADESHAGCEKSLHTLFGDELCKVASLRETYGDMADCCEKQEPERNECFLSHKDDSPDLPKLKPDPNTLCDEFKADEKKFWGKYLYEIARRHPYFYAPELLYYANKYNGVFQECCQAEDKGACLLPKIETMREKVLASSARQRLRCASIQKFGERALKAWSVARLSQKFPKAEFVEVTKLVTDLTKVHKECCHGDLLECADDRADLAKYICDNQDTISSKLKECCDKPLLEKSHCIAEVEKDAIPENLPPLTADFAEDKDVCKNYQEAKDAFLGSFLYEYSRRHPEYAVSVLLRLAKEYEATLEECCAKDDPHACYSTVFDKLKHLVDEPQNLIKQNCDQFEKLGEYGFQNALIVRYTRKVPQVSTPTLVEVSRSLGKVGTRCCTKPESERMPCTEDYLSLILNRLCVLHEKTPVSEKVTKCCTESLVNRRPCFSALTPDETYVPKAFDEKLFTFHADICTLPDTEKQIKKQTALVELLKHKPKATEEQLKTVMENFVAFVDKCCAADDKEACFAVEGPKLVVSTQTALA", "experiment": "BSA tryptophan fluorescence quenching", "type": "binding, bovine", "experimental": "The protein binding study was carried out using tryptophan fluorescence quenching experiments with BSA. […] Fluorescence emission spectra were recorded between 300 and 500 nm, with excitation at 295 nm.\nThe quenching constant Ksv was determined based on the Stern–Volmer relationship, as described by Equation (3):I0/I = 1 + kqτ0[Q] = 1 + Ksv[Q](3)\nIn this equation, I0 and I refer to the fluorescence intensities of BSA measured without and with the quencher (complex), τ0 represents the average fluorescence lifetime of free BSA (∼10^−8 s), and [Q] indicates the quencher concentration.\nParameters such as association binding constant (K) and the number of binding sites per albumin (n) were obtained from Scatchard Equation (4):(ΔI/I0)/[Q] = nK − KΔI/I0(4)\nTo minimize inner filter, both intensities of fluorescence originating from excitation and emission light absorption and re-absorption were corrected by employing Equation (5); Icor and Iobs are the corrected and observed fluorescence intensities, respectively, and Aex and Aem represent the absorbance of the metal complex at the excitation and emission wavelengths, respectively.Icor = Iobs · […]^(Aex + Aem)/2(5)"}, "[5]": {"system": "CT-DNA", "experiment": "UV-Vis absorption titration with CT-DNA", "type": "binding, calf", "settings": "ΔG = −RT lnKb", "experimental": "All DNA-binding studies were conducted in 0.01 M phosphate-buffered saline (PBS, pH 7.40) at 25 °C. […] To eliminate absorbance from CT-DNA, identical amounts of DNA were added to both the test and reference solutions prior to spectral recording.\nIntrinsic binding constants (Kb) were calculated using the equation to determine the DNA-binding affinities of the complexes (1):[DNA]/(εa − εf) = [DNA]/(εb − εf) + 1 [Kb(εb − εf)](1)\n[DNA] represents the concentration of DNA; apparent extinction coefficient, εa, was calculated as the ratio of the observed absorbance to the concentration of the complex (Aobs/[complex]); and εb and εf correspond to the extinction coefficients of the complex in the fully bound and free forms, respectively. Kb was determined from the ratio of the slope to the intercept obtained from the corresponding linear plots."}, "[6]": {"system": "CT26 cells", "experiment": "Annexin V/PI apoptosis in CT26", "type": "cell-based, mouse", "settings": "0.5 μM for 24 h", "experimental": "(§3) The following supporting information can be downloaded at https://www.mdpi.com/article/10.3390/pharmaceutics17101340/s1. NMR and FTIR spectra of free ligands and complexes. Figure S1. […] Inset: Plot of [DNA]/(εA − εf) vs. [DNA]. Figure S2. Relative viscosity (η/η0) ^1/3 of CT-DNA (8 µM) in PBS buffer solution with the addition of increasing amounts (r) of C2 and C4 complexes. Figure S3. […] [EB] = 8.52 × 10^−5 M; [DNA] = 8.52 × 10^−5 M; [complex] = (0–6.82) × 10^−5; λex = 527 nm. Arrows show the intensity changes upon increasing the concentration of the complex. Inset graph: Plot of I0/I vs. [Q]. Figure S4. […] [BSA] = 2 μM; [complex] = 0–8 μM; λex = 295 nm. Arrows show the intensity changes upon increasing the concentration of the complex. Inset graph: Plot of I0/I vs. [Q]. Figure S5. […] Figure S6. Dose-dependent cytotoxicity of silver(I) complexes with S-alkyl derivatives of thiosalicylic acid. […] All data are presented as mean values ± SD from three independent experiments performed in triplicate. Figure S7. Dose-dependent cytotoxicity of S-alkyl derivatives of thiosalicylic acid. […] All data are presented as mean values ± SD from three independent experiments performed in triplicate. Figure S8. […] Apoptotic rates of C2-treated (0.5 μM for 24 h) as well as untreated CT26 and HCT116 cells were determined by flow cytometry using Annexin V (FITC) and PI double staining. […]"}, "[7]": {"system": "human fibroblast cell lines (MRC-5)", "experiment": "MTT assay MRC-5", "type": "cell-based", "experimental": "as §1, §2"}, "[8]": {"system": "mouse mesenchymal stem cells (mMSC)", "experiment": "MTT assay mMSC", "type": "cell-based", "experimental": "as §1, §2"}, "[9]": {"system": "human lung cancer (A549)", "experiment": "MTT assay A549", "type": "cell-based", "experimental": "as §1, §2"}, "[10]": {"system": "HCT116 cells", "experiment": "Annexin V/PI apoptosis in HCT116", "type": "cell-based, human", "settings": "0.5 μM for 24 h", "experimental": "as §3"}, "[11]": {"system": "Mouse breast cancer (4T1)", "experiment": "MTT assay 4T1", "type": "cell-based", "settings": "4T1, 48 h", "experimental": "as §1, §2"}, "[12]": {"system": "mouse lung cancer (LLC1)", "experiment": "MTT assay LLC1", "type": "cell-based", "experimental": "as §1, §2"}},
  "data": [
    {"compound": "CCSc1ccccc1C(=O)[O][Ag].CCSc1ccccc1C(=O)[O][Ag]", "note": "[C2, [Ag2(S-ethyl-thiosal)2]]", "values": [
      {"measurement": "viscosity of CT-DNA", "setting": "[1]", "result": "modest rise in the viscosity"},
      {"measurement": "Ksv EB (Stern–Volmer constant)", "setting": "[2]", "result": "(1.1 ± 0.1) × 10^4 M^−1"},
      {"measurement": "IC50", "setting": "[3]; MDA-MB-468, 24 h", "result": "8.67 ± 1.13", "unit": "µM"},
      {"measurement": "Selectivity Index (IC50 mMSC or MRC-5/ IC50 Cancer Cell)", "setting": "[3]; MDA-MB-468, 24 h", "result": 4.39},
      {"measurement": "IC50", "setting": "[3]; MDA-MB-468, 48 h", "result": "5.43 ± 0.34", "unit": "µM"},
      {"measurement": "Selectivity Index (IC50 mMSC or MRC-5/ IC50 Cancer Cell)", "setting": "[3]; MDA-MB-468, 48 h", "result": 7.95},
      {"measurement": "kq (quenching rate constant)", "setting": "[4]; BSA 2 µM", "result": "(1.4 ± 0.1) × 10^13 M^−1 s^−1"},
      {"measurement": "Ksv (Stern–Volmer constant)", "setting": "[4]; BSA 2 µM, λex 295 nm", "result": "(1.4 ± 0.1) × 10^5 M^−1"},
      {"measurement": "K (binding constant)", "setting": "[4]; Scatchard equation", "result": "(1.3 ± 0.1) × 10^5 M^−1"},
      {"measurement": "n (number of binding sites)", "setting": "[4]; Scatchard equation", "result": 1.1},
      {"measurement": "ΔG (Gibbs free energy)", "setting": "[5]", "result": -6.76, "unit": "kcal/mol"},
      {"measurement": "apoptosis of CT26 cells", "setting": "[6]", "result": "underwent apoptosis"},
      {"measurement": "IC50", "setting": "[7]; MRC-5, 24 h", "result": "38 ± 1.91", "unit": "µM"},
      {"measurement": "IC50", "setting": "[7]; MRC-5, 48 h", "result": "43.2 ± 1.23", "unit": "µM"},
      {"measurement": "IC50", "setting": "[8]; 24 h", "result": "4.29 ± 0.92", "unit": "µM"},
      {"measurement": "IC50", "setting": "[8]; 48 h", "result": "4.52 ± 0.48", "unit": "µM"},
      {"measurement": "IC50", "setting": "[9]; A549, 24 h", "result": "37.8 ± 1.01", "unit": "µM"},
      {"measurement": "Selectivity Index (IC50 mMSC or MRC-5/ IC50 Cancer Cell)", "setting": "[9]; A549, 24 h", "result": 1.01},
      {"measurement": "IC50", "setting": "[9]; A549, 48 h", "result": "50.2 ± 1.07", "unit": "µM"},
      {"measurement": "Selectivity Index (IC50 mMSC or MRC-5/ IC50 Cancer Cell)", "setting": "[9]; A549, 48 h", "result": 0.86},
      {"measurement": "apoptosis of HCT116 cells", "setting": "[10]", "result": "underwent apoptosis"},
      {"measurement": "IC50", "setting": "[11]", "result": "4.84 ± 0.92", "unit": "µM"},
      {"measurement": "Selectivity Index (IC50 mMSC or MRC-5/ IC50 Cancer Cell)", "setting": "[11]", "result": 0.93},
      {"measurement": "IC50", "setting": "[12]; LLC1, 24 h", "result": "18.2 ± 0.93", "unit": "µM"},
      {"measurement": "Selectivity Index (IC50 mMSC or MRC-5/ IC50 Cancer Cell)", "setting": "[12]; LLC1, 24 h", "result": 0.24},
      {"measurement": "IC50", "setting": "[12]; LLC1, 48 h", "result": "20.2 ± 0.79", "unit": "µM"},
      {"measurement": "Selectivity Index (IC50 mMSC or MRC-5/ IC50 Cancer Cell)", "setting": "[12]; LLC1, 48 h", "result": 0.22}
    ]}
  ]
}
